In patent US12458638B2, “Method of stimulating neutrophil survival and reducing neutropenia” (BEYONDSPRING PHARMACEUTICALS, INC., priority 2017, dated 2025):
Where two headings read alike, the source gives them in different places.

Assays:
[1] = test system: docetaxel-induced neutropenia; test: Grade 4 neutropenia in patients on docetaxel with or without plinabulin; type: in vivo, human; conditions: for proportion of patients with Grade 4 neutropenia: Cycle 1, Day 8, ANC<0.5×10^9/L, docetaxel alone vs plinabulin added to docetaxel, p<0.0003
[2] = Safety / product profile of plinabulin vs G-CSF in patients (bone pain, hospitalization, hypertension, laboratory parameters); type: in vivo, human
[3] = test system: NSCLC patients with a measurable lesion; conditions: human, in vivo
[4] = test system: neutropenia caused by chemotherapies; test: Animal model studies of chemotherapy-caused neutropenia; type: in vivo; conditions: animal models; docetaxel, cisplatin, adriamycin, cyclosphosphamide, topotecan, gemcitabine
Excerpt: Clinical complications of neutropenia (febrile neutropenia, infections, sepsis, and mortality) occur with Grade 4 Neutropenia, as compared to with Grade 2 or 3 Neutropenia. For regulatory approval, the FDA and Health Authorities focus on Grade 4 Neutropenia data.

[5] = test system: docetaxel-induced neutropenia; test: Randomized double blind study, plinabulin vs pegfilgrastim in solid tumor patients receiving docetaxel (Example 4); type: in vivo, human; conditions: for neutrophil count through time (FIG. 1): after docetaxel 75 mg/m^2
Protocol: A randomized, double blind study to evaluate duration of severe neutropenia with plinabulin versus pegfilgrastim in patients with solid tumors receiving docetaxel myelosuppressive chemotherapy was performed. Patients were randomly assigned to the following arms (with the respective sample sizes): Arm 1: Docetaxel (75 mg/m^2)+Pegfilgrastim (6 mg) (n=14); Arm 2: Docetaxel (75 mg/m^2)+Plinabulin (20 mg/m^2) (n=14); Arm 3: Docetaxel (75 mg/m^2)+Plinabulin (10 mg/m^2) (n=14); and Arm 4: Docetaxel (75 mg/m^2)+Plinabulin (5 mg/m^2) (n=13).

[6] = test system: docetaxel-induced severe neutropenia; test: Calculated DSN from Day 8 neutrophil nadir values (simulation, Deming regression); type: in vivo, human; conditions: from observed Day 8 neutrophil (nadir) values, Cycle 1
Excerpt: DSN is obtained using the following methods (described below) for generation of ANC data and the observed neutrophil values on Day 8/Cycle 1 in the Phase 2 study. […] The study may assume that the shape of the time/neutrophil recovery curve in plinabulin-treated patients is indistinguishable from the time/neutrophil recovery curve for filgrastim and its biosimilars.
Mean values and standard deviations of ANC during the 21-day follow-up period can be obtained from the reference. […] The simulation would then also generate the projected number of days with severe neutropenia, (i.e., the DSN).

[7] = test system: chemotherapy-induced febrile/severe neutropenia; conditions: cited from earlier work
CYP3A4 = CYP3A4 (Homo sapiens, UniProt P08684); conditions: with the use of strong CYP3A4 inhibitors; cited from earlier work
Chain of CYP3A4 (P08684 whole entry): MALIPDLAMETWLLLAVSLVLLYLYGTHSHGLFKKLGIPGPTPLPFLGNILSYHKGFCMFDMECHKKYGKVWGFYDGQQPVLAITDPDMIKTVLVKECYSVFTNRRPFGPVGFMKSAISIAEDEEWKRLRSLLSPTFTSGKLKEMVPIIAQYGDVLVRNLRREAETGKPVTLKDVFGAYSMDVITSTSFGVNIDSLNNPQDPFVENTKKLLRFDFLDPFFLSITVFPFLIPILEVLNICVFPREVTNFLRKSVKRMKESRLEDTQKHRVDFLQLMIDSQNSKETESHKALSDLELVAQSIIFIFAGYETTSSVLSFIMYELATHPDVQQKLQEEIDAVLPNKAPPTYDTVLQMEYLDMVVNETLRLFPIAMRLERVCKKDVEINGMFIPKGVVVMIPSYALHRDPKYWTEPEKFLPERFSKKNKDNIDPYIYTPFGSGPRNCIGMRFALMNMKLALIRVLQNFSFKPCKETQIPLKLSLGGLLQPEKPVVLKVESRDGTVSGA

[8] = test system: chemotherapy-induced febrile/severe neutropenia; test: Reported FN frequency and DSN with docetaxel or TAC chemotherapy, with or without G-CSF; type: in vivo, human; conditions: docetaxel monotherapy 75 mg/m^2 without G-CSF
Protocol: The frequency of FN with docetaxel monotherapy (100 mg/m^2)+G-CSF is reported to be 1% in Cycle 1. […] 2002; 20:727-731.
The FN percentage is about 12.7% with 75 mg/m^2 docetaxel. Based on this range of FN and the relationship established between FN and DSN, the assumption is that, with docetaxel monotherapy at a dose of 75 mg/m^2 without G-CSF, the median DSN is estimated to be 4-5 days.
The margin can be selected based on the data that Taxotere/Adriamycin/cyclophosphamide (TAC) chemotherapy can induce a median DSN of 7 days in breast cancer patients receiving no G-CSF treatment, while G-CSF treatment reduces the mean DSN for this chemotherapy to 1.4 days (95% CI: 1.07-1.69) as shown in pegfilgrastim Study. Based on this a non-inferiority limit of 1 day is derived.

[9] = most common adverse reactions; cited from earlier work
[10] = G-CSF, Table 1; cited from earlier work
[11] = Plinabulin 5 mg/m2 + docetaxel 75 mg/m^2
[12] = Plinabulin 10 mg/m2 + docetaxel 75 mg/m^2
[13] = Plinabulin 20 mg/m2 + docetaxel 75 mg/m^2
[14] = Neulasta 6 mg + docetaxel 75 mg/m^2

CC(C)(C)c1[nH]cnc1/C=c1\[nH]c(=O)/c(=C/c2ccccc2)[nH]c1=O [Plinabulin, (3Z,6Z)-3-Benzylidene-6-{[5-(2-methyl-2-propanyl)-1H-imidazol-4-yl]methylene}-2,5-piperazinedione]
proportion of patients with Grade 4 neutropenia [1]: 4.6%
clinical sequelae associated with docetaxel-induced neutropenia (sepsis, infections, hospitalizations, docetaxel dose reductions, G-CSF use) ([1]; human, in vivo): reduced
Grade 3 transient hypertension, patients ([2]; 20 mg/m^2 plinabulin): 5%
Grade 3 transient hypertension, patients ([2]; 30 mg/m^2 plinabulin): 20%
Bone Pain (% of patients) ([2]; Plinabulin, Table 1): <4%
Hospitalization (% of patients) ([2]; Plinabulin, Table 1): 6%
Bone pain, patients reporting ([2]; patients receiving plinabulin): 4%
changes in hematology or chemistry laboratory parameters ([2]; plinabulin monotherapy, solid tumor patients, no chemotherapy): did not experience any clinically significant deleterious changes
Immune-Related AEs (IR-AEs) [3]: without increasing Immune-Related AEs
prevention of neutropenia caused by chemotherapies [4]: prevent neutropenia
DSN [5, 11]: 0.46 days
Grade 4 Incidence (%) [5, 11]: 23%
DSN [5, 12]: 0.43 days
Grade 4 Incidence (%) [5, 12]: 21%
DSN [5, 13]: 0.38 days
Grade 4 Incidence (%) [5, 13]: 15%
neutrophil count through time (FIG. 1) [5]: started to rise again on day 10
treatment of neutropenia induced by chemotherapeutic agent ([5]; human, in vivo): effective in treating neutropenia

CC(=O)O[C@@]12CO[C@@H]1C[C@H](O)[C@@]1(C)C(=O)[C@H](O)C3=C(C)[C@@H](OC(=O)[C@H](O)[C@@H](NC(=O)OC(C)(C)C)c4ccccc4)C[C@@](O)([C@@H](OC(=O)c4ccccc4)[C@H]21)C3(C)C [docetaxel]
calculated mean DSN [6]: 1.076 days
FN percentage ([7]; 75 mg/m^2 docetaxel): about 12.7%
frequency of FN ([7]; Cycle 1, docetaxel 100 mg/m^2 without G-CSF): 11%
frequency of FN ([7]; over all cycles, docetaxel 60 mg/m^2 without G-CSF): 19.8%
frequency of FN ([7]; over all cycles, docetaxel 100 mg/m^2 without G-CSF): 17%
proportion of patients with Grade 4 neutropenia [1]: 33.3%
increase of docetaxel exposure (CYP3A4): approximately 2 fold
estimated median DSN [8]: 4 to 5 days

B1: Neulasta: pegfilgrastim (Neulasta®), a granulocyte colony-stimulating factor (G-CSF) compound (protein, chains of the INN, looked up)
chain: TPLGPASSLPQSFLLKCLEQVRKIQGDGAALQEKLCATYKLCHPEELVLLGHSLGIPWAPLSSCPSQALQLAGCLSQLHSGLFLYQGLLQALEGISPELGPTLDTLQLDVADFATTIWQQMEELGMAPALQPTQGAMPAFASAFQRRAGGVLVASHLQSFLEVSYRVLRHLAQP
bone pain, patients [9]: 31%
pain in an extremity, patients [9]: 9%
DSN [5, 14]: 0.14 days
Grade 4 Incidence (%) [5, 14]: 14%
neutrophil count through time (FIG. 1) [5]: had an initial increase and then began to drop after 10 days

B2: G-CSF: Granulocyte-colony stimulating factor; G-CSF compounds include filgrastim and pegfilgrastim (protein, UniProt P09919 31-207, looked up)
Granulocyte …: TPLGPASSLPQSFLLKCLEQVRKIQGDGAALQEKLVSECATYKLCHPEELVLLGHSLGIPWAPLSSCPSQALQLAGCLSQLHSGLFLYQGLLQALEGISPELGPTLDTLQLDVADFATTIWQQMEELGMAPALQPTQGAMPAFASAFQRRAGGVLVASHLQSFLEVSYRVLRHLAQP
mean DSN ([7]; G-CSF treatment with TAC chemotherapy, 95% CI: 1.07-1.69): 1.4 days
Bone Pain (% of patients) [10]: >20%
Hospitalization (% of patients) [10]: 20%
